According to ChEMBL document CHEMBL3124780, “The synthesis of 4,7-disubstituted-2H-benzo[b][1,4]-oxazin-3(4H)-ones using Smiles rearrangement and their in vitro evaluation as platelet aggregation inhibitors” (Bioorg Med Chem Lett, 2014):

Test: Antiplatelet activity in New Zealand rabbit platelet-rich plasma assessed as inhibition of ADP-induced aggregation treated for 5 mins prior to ADP-challenge measured after 1 to 6 mins by spectrophotometric analysis
Assay type: functional, cell-free
Details: Oryctolagus cuniculus

SMILES	IC50 [µM]
CCCCN1C(=O)COc2cc(CN3CCN(c4ccccc4)CC3)ccc21	15.5
CCCCN1C(=O)COc2cc(CN3CCN(c4ccccc4F)CC3)ccc21	17.1
O=C1COc2cc(CN3CCN(c4ccccc4F)CC3)ccc2N1Cc1ccccc1	15.3
CCCN1C(=O)COc2cc(CN3CCN(Cc4ccccc4)CC3)ccc21	9.2
CCN1C(=O)COc2cc(CN3CCOCC3)ccc21	10.5
CC(C)N1C(=O)COc2cc(CN3CCOCC3)ccc21	11
CCCN1C(=O)COc2cc(CN3CCOCC3)ccc21	9.63
CCCCN1C(=O)COc2cc(CN3CCOCC3)ccc21	14.4
O=C1COc2cc(CN3CCOCC3)ccc2N1Cc1ccccc1	12.2
CCN1C(=O)COc2cc(CN3CCN(c4ccccc4)CC3)ccc21	10.1
CC(C)N1C(=O)COc2cc(CN3CCN(c4ccccc4)CC3)ccc21	10.8
CCCN1C(=O)COc2cc(CN3CCN(c4ccccc4)CC3)ccc21	12.8
O=C1COc2cc(CN3CCN(c4ccccc4)CC3)ccc2N1Cc1ccccc1	13.9
CCN1C(=O)COc2cc(CN3CCN(c4ccc(F)cc4)CC3)ccc21	11.1
CC(C)N1C(=O)COc2cc(CN3CCN(c4ccc(F)cc4)CC3)ccc21	13.3
CCCN1C(=O)COc2cc(CN3CCN(c4ccc(F)cc4)CC3)ccc21	11.4
CCCCN1C(=O)COc2cc(CN3CCN(c4ccc(F)cc4)CC3)ccc21	15.2
O=C1COc2cc(CN3CCN(c4ccc(F)cc4)CC3)ccc2N1Cc1ccccc1	19.4
CCN1C(=O)COc2cc(CN3CCN(c4ccccc4F)CC3)ccc21	12.7
CC(C)N1C(=O)COc2cc(CN3CCN(c4ccccc4F)CC3)ccc21	13.6
CCCN1C(=O)COc2cc(CN3CCN(c4ccccc4F)CC3)ccc21	13.8
CC(=O)Oc1ccccc1C(=O)O [ASPIRIN]	7.07
Clc1ccccc1CN1CCc2sccc2C1 [TICLOPIDINE]	3.72
